Patent US12479847B2 (DANA-FARBER CANCER INSTITUTE, INC., priority 2019, dated 2025)

How the values were obtained:
Experiment in all cases: KINOMEscan (ScanMAX) kinase profiling
Type in all cases: binding
[1] = molecular target: T1, panel of 468 kinases (Homo sapiens, UniProt Q13464); settings: ROCK1; 1 μM; read-out: % control
T1 construct: purchased KINOMEscan (ScanMAX) service

[2] = molecular target: T2, panel of 468 kinases (Homo sapiens, UniProt P41743); settings: PRKCI; 1 μM; read-out: % control
T2 construct: purchased KINOMEscan (ScanMAX) service
T2 sequence (P41743 1-596): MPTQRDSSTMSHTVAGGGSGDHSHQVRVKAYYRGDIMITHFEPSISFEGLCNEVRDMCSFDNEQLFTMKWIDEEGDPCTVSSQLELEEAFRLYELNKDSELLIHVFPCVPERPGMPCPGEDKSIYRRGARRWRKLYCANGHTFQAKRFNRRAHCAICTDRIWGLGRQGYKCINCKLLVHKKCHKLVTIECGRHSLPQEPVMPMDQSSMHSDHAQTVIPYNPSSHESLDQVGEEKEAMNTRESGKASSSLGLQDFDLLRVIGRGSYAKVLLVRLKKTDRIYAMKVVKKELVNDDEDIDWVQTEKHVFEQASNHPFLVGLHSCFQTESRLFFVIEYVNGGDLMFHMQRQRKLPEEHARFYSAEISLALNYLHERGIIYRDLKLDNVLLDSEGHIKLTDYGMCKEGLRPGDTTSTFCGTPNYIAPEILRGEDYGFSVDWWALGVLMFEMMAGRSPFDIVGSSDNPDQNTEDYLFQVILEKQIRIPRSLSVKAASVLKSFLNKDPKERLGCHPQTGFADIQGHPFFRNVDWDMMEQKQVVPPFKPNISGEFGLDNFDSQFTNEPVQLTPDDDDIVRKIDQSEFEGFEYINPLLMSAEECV

[3] = molecular target: T3, panel of 468 kinases (Homo sapiens, UniProt Q8TD08); settings: ERK8; 1 μM; read-out: % control
T3 construct: purchased KINOMEscan (ScanMAX) service
T3 sequence (Q8TD08 1-544): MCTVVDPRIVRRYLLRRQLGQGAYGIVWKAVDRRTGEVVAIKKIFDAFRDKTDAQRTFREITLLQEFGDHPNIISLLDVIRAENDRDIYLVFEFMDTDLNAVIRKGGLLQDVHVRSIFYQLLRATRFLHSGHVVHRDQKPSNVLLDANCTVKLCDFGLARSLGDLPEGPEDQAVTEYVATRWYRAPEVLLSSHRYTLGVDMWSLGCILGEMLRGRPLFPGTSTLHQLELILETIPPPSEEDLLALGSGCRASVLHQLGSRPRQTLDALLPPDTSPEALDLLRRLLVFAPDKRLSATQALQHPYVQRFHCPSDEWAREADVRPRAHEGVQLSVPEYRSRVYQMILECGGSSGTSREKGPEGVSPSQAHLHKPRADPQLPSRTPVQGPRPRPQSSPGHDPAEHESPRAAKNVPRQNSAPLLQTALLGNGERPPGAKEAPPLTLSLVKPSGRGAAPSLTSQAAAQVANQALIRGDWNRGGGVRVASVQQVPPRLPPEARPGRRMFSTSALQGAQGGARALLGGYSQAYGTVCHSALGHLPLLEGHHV

[4] = molecular target: T4, panel of 468 kinases (Homo sapiens, UniProt Q9UM73, C1156Y); settings: ALK(C1156Y); 1 μM; read-out: % control
T4 construct: purchased KINOMEscan (ScanMAX) service

[5] = molecular target: T5, panel of 468 kinases (Homo sapiens, UniProt O15197); settings: EPHB6; 1 μM; read-out: % control
T5 construct: purchased KINOMEscan (ScanMAX) service
T5 sequence (O15197 32-1021): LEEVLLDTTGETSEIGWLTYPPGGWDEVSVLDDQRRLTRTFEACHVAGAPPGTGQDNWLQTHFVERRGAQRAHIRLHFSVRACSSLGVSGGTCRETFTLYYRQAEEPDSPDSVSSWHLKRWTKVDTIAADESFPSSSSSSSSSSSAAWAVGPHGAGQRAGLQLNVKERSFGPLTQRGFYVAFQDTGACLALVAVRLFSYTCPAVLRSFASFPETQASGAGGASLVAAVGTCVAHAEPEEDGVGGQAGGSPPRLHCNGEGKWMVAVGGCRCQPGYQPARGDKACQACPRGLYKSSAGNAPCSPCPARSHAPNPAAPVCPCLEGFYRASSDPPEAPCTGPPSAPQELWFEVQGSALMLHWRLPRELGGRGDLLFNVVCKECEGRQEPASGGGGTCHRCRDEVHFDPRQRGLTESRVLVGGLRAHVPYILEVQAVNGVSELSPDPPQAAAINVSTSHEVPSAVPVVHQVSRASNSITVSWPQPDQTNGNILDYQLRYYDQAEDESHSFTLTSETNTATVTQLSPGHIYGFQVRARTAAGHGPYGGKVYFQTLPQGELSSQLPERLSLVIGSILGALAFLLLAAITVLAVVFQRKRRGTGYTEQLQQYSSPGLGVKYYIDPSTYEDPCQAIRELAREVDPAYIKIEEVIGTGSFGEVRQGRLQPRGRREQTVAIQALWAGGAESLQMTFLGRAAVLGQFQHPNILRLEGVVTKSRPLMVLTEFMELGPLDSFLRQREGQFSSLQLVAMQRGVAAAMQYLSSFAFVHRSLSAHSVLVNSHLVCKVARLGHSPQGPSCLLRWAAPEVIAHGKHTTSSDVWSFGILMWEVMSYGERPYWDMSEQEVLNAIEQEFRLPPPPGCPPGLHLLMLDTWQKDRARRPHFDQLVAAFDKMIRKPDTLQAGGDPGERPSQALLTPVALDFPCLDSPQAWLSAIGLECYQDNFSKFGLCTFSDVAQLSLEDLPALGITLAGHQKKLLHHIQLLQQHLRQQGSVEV

[6] = molecular target: T6, panel of 468 kinases (Homo sapiens, UniProt P21127); settings: CDC2L1; 1 μM; read-out: % control
T6 construct: purchased KINOMEscan (ScanMAX) service

[7] = molecular target: T7, panel of 468 kinases (Homo sapiens, UniProt P06213); settings: INSR; 1 μM; read-out: % control
T7 construct: purchased KINOMEscan (ScanMAX) service
T7 sequence (P06213 28-1382): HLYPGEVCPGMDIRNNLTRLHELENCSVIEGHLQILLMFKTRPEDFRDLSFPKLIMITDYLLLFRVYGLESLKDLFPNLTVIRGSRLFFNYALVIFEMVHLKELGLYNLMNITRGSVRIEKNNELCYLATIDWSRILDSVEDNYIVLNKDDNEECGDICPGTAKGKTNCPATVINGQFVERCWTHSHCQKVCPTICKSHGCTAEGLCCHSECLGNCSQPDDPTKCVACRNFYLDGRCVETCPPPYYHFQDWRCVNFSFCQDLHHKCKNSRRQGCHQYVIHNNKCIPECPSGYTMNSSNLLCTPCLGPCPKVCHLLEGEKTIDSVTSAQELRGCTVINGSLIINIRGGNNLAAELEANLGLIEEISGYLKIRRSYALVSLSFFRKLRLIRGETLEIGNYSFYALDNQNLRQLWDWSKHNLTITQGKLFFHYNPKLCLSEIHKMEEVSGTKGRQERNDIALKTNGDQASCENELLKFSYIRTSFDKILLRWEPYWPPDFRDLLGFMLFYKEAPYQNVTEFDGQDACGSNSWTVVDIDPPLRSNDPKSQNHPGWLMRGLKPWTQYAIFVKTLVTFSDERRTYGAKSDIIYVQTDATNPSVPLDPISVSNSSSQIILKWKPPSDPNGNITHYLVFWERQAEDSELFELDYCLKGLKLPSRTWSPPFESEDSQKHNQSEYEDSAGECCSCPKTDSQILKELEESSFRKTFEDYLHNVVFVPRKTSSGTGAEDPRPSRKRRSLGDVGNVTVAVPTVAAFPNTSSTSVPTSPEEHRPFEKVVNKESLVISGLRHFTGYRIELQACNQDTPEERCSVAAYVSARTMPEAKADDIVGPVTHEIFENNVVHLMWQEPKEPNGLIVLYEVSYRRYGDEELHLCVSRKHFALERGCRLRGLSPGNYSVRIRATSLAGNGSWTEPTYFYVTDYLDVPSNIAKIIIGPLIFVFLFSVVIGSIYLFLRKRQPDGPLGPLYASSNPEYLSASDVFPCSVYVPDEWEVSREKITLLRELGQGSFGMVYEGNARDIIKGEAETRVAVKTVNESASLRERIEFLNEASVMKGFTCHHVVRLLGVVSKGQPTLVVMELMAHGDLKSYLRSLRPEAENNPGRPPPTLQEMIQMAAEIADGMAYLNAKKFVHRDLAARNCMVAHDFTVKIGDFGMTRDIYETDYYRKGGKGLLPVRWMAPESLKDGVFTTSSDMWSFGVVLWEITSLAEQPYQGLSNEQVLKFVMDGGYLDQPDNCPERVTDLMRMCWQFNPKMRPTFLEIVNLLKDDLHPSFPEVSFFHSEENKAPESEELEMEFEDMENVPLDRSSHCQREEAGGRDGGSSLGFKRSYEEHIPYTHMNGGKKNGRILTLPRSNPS

T6 sequence (P21127 whole entry): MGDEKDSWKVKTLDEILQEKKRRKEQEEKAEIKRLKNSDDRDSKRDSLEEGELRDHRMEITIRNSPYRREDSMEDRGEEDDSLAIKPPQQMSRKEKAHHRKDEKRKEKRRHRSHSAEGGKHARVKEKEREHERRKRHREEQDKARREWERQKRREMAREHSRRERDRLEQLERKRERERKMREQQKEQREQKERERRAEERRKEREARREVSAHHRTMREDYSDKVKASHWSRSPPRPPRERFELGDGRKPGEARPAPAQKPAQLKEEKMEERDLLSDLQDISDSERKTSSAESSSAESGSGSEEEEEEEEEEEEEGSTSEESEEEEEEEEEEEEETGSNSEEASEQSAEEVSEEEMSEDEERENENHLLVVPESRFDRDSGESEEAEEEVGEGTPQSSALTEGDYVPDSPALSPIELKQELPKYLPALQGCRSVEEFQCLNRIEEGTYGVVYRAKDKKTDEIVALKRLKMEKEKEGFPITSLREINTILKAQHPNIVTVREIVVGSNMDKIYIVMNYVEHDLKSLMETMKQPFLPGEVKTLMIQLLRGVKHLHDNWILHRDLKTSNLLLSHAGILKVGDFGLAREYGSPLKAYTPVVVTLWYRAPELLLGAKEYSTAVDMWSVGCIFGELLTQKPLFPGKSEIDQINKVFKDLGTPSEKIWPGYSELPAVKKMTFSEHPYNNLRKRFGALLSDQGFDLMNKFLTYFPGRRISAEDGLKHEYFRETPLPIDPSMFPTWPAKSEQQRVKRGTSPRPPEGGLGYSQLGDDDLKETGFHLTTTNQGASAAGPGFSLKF
T4 sequence (Q9UM73 19-1620 C1156Y): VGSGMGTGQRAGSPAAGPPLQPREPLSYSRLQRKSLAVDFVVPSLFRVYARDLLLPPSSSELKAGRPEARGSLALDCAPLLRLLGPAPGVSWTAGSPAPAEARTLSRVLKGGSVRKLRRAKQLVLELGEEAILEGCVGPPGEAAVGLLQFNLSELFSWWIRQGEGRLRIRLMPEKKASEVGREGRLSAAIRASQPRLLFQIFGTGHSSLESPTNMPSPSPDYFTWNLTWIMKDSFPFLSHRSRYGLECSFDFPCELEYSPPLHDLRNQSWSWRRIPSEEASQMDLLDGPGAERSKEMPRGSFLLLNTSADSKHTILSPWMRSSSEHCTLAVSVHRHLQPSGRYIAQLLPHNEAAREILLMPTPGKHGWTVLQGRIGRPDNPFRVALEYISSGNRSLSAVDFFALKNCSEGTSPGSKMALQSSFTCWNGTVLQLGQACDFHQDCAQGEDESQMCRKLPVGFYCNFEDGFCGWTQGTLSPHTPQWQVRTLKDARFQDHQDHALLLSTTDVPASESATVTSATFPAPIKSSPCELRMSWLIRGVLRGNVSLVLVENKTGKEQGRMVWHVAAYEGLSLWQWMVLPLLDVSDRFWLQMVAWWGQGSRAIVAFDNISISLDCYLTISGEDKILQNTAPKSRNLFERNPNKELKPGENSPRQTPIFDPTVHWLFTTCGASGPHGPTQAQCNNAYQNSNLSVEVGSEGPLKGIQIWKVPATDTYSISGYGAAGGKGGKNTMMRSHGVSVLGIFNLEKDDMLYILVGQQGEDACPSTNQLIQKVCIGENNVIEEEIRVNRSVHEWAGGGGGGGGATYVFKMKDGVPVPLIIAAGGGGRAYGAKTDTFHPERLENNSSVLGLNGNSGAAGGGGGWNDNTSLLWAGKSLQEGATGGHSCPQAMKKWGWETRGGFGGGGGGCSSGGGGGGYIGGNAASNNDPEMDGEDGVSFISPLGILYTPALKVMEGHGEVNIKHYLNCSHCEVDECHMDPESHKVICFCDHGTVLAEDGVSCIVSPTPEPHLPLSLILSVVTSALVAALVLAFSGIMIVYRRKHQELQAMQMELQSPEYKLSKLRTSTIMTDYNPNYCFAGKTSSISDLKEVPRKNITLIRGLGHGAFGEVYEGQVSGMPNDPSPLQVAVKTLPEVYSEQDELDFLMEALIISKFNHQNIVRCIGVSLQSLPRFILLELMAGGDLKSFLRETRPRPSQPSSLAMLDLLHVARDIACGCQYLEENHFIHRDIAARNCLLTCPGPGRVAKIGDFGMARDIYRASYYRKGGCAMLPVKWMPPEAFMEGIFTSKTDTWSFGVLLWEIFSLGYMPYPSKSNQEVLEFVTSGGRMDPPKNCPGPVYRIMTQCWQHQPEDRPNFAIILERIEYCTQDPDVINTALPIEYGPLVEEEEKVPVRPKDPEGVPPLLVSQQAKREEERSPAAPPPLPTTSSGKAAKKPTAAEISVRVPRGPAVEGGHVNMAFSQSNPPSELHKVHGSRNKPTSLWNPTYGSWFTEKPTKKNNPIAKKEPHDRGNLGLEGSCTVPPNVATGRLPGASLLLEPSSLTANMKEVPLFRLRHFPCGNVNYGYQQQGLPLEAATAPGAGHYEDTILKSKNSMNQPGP
T1 sequence (Q13464 whole entry): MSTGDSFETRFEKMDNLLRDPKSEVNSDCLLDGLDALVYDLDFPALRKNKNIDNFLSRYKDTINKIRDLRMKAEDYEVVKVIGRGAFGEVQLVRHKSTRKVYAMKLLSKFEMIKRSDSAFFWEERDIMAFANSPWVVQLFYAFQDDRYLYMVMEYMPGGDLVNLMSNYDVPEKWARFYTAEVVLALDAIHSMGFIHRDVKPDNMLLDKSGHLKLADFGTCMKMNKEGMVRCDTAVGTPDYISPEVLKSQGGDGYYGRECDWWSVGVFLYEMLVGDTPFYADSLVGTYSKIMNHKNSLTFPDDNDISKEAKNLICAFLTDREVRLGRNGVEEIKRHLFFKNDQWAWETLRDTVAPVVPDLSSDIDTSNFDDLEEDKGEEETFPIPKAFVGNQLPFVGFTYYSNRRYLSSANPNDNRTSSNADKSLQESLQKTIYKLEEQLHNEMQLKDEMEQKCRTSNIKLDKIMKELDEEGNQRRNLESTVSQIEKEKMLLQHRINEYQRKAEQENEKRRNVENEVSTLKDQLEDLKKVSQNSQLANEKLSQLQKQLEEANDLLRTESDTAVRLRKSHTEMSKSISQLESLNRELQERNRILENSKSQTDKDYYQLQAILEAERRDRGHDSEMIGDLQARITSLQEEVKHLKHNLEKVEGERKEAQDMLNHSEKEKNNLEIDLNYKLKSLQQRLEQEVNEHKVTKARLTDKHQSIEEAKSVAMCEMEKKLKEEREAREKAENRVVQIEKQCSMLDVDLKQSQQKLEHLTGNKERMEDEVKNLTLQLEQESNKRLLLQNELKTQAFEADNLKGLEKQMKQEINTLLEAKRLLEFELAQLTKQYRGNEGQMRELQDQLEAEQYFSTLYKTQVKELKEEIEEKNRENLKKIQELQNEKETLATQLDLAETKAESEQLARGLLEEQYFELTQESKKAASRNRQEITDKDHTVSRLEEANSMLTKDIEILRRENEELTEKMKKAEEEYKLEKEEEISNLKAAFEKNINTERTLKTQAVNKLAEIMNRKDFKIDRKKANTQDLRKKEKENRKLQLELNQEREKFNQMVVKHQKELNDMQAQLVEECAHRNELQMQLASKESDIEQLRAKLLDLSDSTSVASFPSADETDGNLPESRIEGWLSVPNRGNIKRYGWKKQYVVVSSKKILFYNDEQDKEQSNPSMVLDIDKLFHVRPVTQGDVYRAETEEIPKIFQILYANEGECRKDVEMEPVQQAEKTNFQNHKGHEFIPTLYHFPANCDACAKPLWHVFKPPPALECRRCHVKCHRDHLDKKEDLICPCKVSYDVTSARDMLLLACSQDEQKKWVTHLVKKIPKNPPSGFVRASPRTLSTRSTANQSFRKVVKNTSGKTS

Row | Compound | remaining binding at 1 µM [1] [%] | remaining binding at 1 µM [2] [%] | remaining binding at 1 µM [3] [%] | remaining binding at 1 µM [4] [%] | remaining binding at 1 µM [5] [%] | remaining binding at 1 µM [6] [%] | remaining binding at 1 µM [7] [%]
1 | CNc1nc(Nc2ccc(S(=O)(=O)N3CCC(N4CCOCC4)CC3)cc2OC)nc2[nH]cc(Cl)c12 [Compound 12, 5-chloro-N2-(2-methoxy-4-((4-morpholinopiperidin-1-yl)sulfonyl)phenyl)-N4-methyl-7H-pyrrolo[2,3-d]pyrimidine-2,4-diamine] | 100 | 54 | 100 | 2.7 | 51 | 100 | 50
2 | CNc1nc(Nc2ccc(C(=O)N3CCC(N4CCOCC4)CC3)c3c2OCO3)nc2[nH]cc(Cl)c12 [Compound 75, (7-((5-chloro-4-(methylamino)-7H-pyrrolo[2,3-d]pyrimidin-2-yl)amino)benzo[d][1,3]dioxol-4-yl)(4-morpholinopiperidin-1-yl)methanone] | 35 | 65 | 100 | 1.2 | 51 | 100 | 24
3 | CNc1nc(Nc2ccc(P3(=O)CCN(C4CCOCC4)CC3)cc2OC)nc2[nH]cc(Cl)c12 [Compound 77, 4-(4-((5-chloro-4-(methylamino)-7H-pyrrolo[2,3-d]pyrimidin-2-yl)amino)-3-methoxyphenyl)-1-(tetrahydro-2H-pyran-4-yl)-1,4-azaphosphinane 4-oxide] | 95 | 55 | 100 | 1.3 | 49 | 100 | 18
